The structures appear in SMILES notation.

As a reminder, the IC50 is the concentration needed to halve the response being measured.

Series [1] is described as follows: Antiproliferative activity against mouse L929 cells assessed as inhibition of cell growth measured after 48 hrs by MTT assay. The class given is toxicity, cell-based. Particulars: mouse, L929 cells.
In another series the test system is 5637. Briefly: cells. Particulars: Homo sapiens, 5637, 48 h.
The test system of the next series is A549. Briefly: cells. Particulars: Homo sapiens, A549, 48 h.
A further series concerns TE-1. Briefly: cells. Particulars: Homo sapiens, TE-1, 48 h.
The nature of series [2]: Selectivity index, ratio of IC50 for mouse L929 cells to IC50 for human A549 cells. Type of series: toxicity. Particulars: L929 cells and A549 cells, read-out: Ratio IC50.

Description for 5637: Antiproliferative activity against human 5637 cells assessed as inhibition of cell growth measured after 48 hrs by MTT assay
Description for A549: Antiproliferative activity against human A549 cells assessed as inhibition of cell growth measured after 48 hrs by MTT assay
Description for TE-1: Antiproliferative activity against human TE-1 cells assessed as inhibition of cell growth measured after 48 hrs by MTT assay

On to `CCn1c2c([n+](CC)c1C)C(=O)c1cc3ccccc3cc1C2=O`, for which the IC50 at 48 h in series [1] was 33800 nM. For the same molecule, the results for the IC50 with 5637, in the series on A549 and with TE-1 were 880 nM, 70 nM and 420 nM, respectively.
Regarding `COCC[n+]1c2c(n(Cc3cnccn3)c1C)C(=O)c1cc3ccccc3cc1C2=O`, the concentration for half-maximal inhibition (IC50) at 48 h in series [1] came out at 141000 nM. The IC50 was found to be 1050 nM with 5637, 4500 nM with A549 and 910 nM in the series on TE-1.
As for `CCc1n(C)c2c([n+]1C)C(=O)c1ccccc1C2=O`, the selectivity ratio in series [2] turned out to be 35. Also, the IC50 at 48 h in series [1] came out at 5600 nM. The molecule further came in with an IC50 in the series on A549 of 160 nM.
For the molecule `CCC(C)Cn1c[n+](C)c2c1C(=O)c1cc3ccccc3cc1C2=O` (stereo not drawn), the IC50 at 48 h in series [1] came to 83900 nM. Besides, the IC50 stood at 1510 nM in the series on 5637, 8400 nM with A549 and 700 nM with TE-1.
On to `CCCCn1c[n+](C)c2c1C(=O)c1cc3ccccc3cc1C2=O`, for which the IC50 at 48 h in series [1] worked out at 65100 nM. The 50% inhibitory concentration (IC50) in the series on 5637 came out at 590 nM; in the series on A549 it was 670 nM; in the series on TE-1, 59000 nM.
In the case of `CC1=C(C)C(=O)c2c(n(C)c[n+]2C)C1=O`, in series [2], the selectivity ratio turned out to be 3.7. For the same molecule, the half-maximal inhibitory concentration (IC50) at 48 h in series [1] is 119000 nM. In the series with A549, this molecule yielded an IC50 of 32100 nM.
For the molecule `C[n+]1cn(Cc2ccccc2)c2c1C(=O)c1cc3ccccc3cc1C2=O`, in series [1], the IC50 at 48 h worked out at 37100 nM. The IC50 in the series on 5637 was 410 nM; with A549 it was 490 nM; in the series with TE-1, 110 nM.
On the same counts, the results for `COc1ccc(Cn2c[n+](C)c3c2C(=O)c2cc4ccccc4cc2C3=O)cc1` are 64400 nM, 800 nM, 860 nM and 80 nM.
On the same counts, the results for `Cc1n(CC(C)C)c2c([n+]1C)C(=O)c1cc3ccccc3cc1C2=O` are 15400 nM, 410 nM, 60 nM and 80 nM.
In the same order, the values of `Cc1n(Cc2ccc(F)cc2)c2c([n+]1C)C(=O)c1cc3ccccc3cc1C2=O` are 76800 nM, 1360 nM, 640 nM and 250 nM.
Take `CCn1c[n+](CC)c2c1C(=O)c1cc3ccccc3cc1C2=O`: the concentration for half-maximal inhibition (IC50) at 48 h in series [1] was 63900 nM. For the same molecule, the figures for the half-maximal inhibitory concentration (IC50) with 5637, with A549 and in the series with TE-1 were 520 nM, 260 nM and 180 nM, respectively.
For the molecule `CCc1n(C)c2c([n+]1C)C(=O)c1cc3ccccc3cc1C2=O`, the selectivity ratio in series [2] was determined as 66. Besides, in series [1], the half-inhibitory concentration (IC50) at 48 h worked out at 14600 nM. In addition, the IC50 in the series on A549 amounted to 220 nM.
Regarding `Cn1c2c([n+](C)c1C1CC1)C(=O)c1cc3ccccc3cc1C2=O`, the selectivity ratio in series [2] was found to be 171. Further, the IC50 at 48 h in series [1] is 15400 nM. In addition, in the series on A549, the IC50 came to 80 nM.
`CC(C)=CCn1c[n+](C)c2c1C(=O)c1cc3ccccc3cc1C2=O`: in series [1], the IC50 at 48 h was determined as 58700 nM. For the same molecule, the half-maximal inhibitory concentration (IC50) in the series on 5637 came out at 1130 nM; with A549, 1810 nM; in the series with TE-1, 22000 nM.
`CCn1c[n+](CC)c2ccccc21`: in series [2], the selectivity ratio was below 10. In addition, the IC50 at 48 h in series [1] was above 200000 nM. In the series on A549, the IC50 is above 100000 nM.
Take `C[n+]1cn(Cc2ccc(F)cc2)c2c1C(=O)c1cc3ccccc3cc1C2=O`: the concentration for half-maximal inhibition (IC50) at 48 h in series [1] was found to be 41100 nM. For the same molecule, the values for the IC50 in the series on 5637, with A549 and in the series with TE-1 were 520 nM, 710 nM and 130 nM, respectively.
`COCCn1c[n+](CCOC)c2c1C(=O)c1ccccc1C2=O`: the selectivity ratio in series [2] came to 16.2. The IC50 at 48 h in series [1] turned out to be 9900 nM. Besides, half-maximal inhibition in the series on A549 (IC50) required 610 nM.
Regarding `Cc1n(C)c2c([n+]1C)C(=O)c1ccccc1C2=O`, the selectivity ratio in series [2] is 24. Besides, the half-maximal inhibitory concentration (IC50) at 48 h in series [1] came out at 2200 nM. In the series with A549, this molecule had an IC50 of 90 nM.
As for `Cc1n(Cc2ccccc2F)c2c([n+]1C)C(=O)c1cc3ccccc3cc1C2=O`, in series [1], the IC50 at 48 h worked out at 12600 nM. The results for the half-inhibitory concentration (IC50) in the series on 5637, in the series with A549 and with TE-1 were 530 nM, 460 nM and 550 nM, respectively.
As for `Cn1c2c([n+](C)c1-c1ccco1)C(=O)c1cc3ccccc3cc1C2=O`, the selectivity ratio in series [2] came to 99. The IC50 at 48 h in series [1] turned out to be 8900 nM. Also, the IC50 in the series with A549 came to 90 nM.
`Cn1c2c([n+](C)c1-c1ccccc1F)C(=O)c1cc3ccccc3cc1C2=O`: the selectivity ratio in series [2] is 13. The IC50 at 48 h in series [1] came to 10700 nM. In addition, the half-maximal inhibitory concentration (IC50) with A549 was determined as 850 nM.
With `Cn1c[n+](C)c2c(O)c3c(c(O)c21)C1C=CC3C1` (stereo not drawn), in series [2], the selectivity ratio was found to be 2.7. The IC50 at 48 h in series [1] was 86000 nM. The molecule further gave an IC50 with A549 of 31500 nM.
In the same order, the values of `CC(C)n1c[n+](C(C)C)c2c1C(=O)c1ccccc1C2=O` are 29.5, 18600 nM and 630 nM.
On the same counts, the results for `Cn1c2c([n+](C)c1C1CC1)C(=O)c1ccccc1C2=O` are 78, 6200 nM and 80 nM.
On to `CC(C)n1c[n+](C)c2c1C(=O)c1cc3ccccc3cc1C2=O`, for which the IC50 at 48 h in series [1] was 84000 nM. For the same molecule, the values for the IC50 in the series with 5637, with A549 and in the series with TE-1 were 750 nM, 450 nM and 420 nM, respectively.
Regarding `CC(C)=CCn1c2c([n+](C)c1C)C(=O)c1cc3ccccc3cc1C2=O`, in series [1], the 50% inhibitory concentration (IC50) at 48 h came to 5520 nM. Moreover, the results for the IC50 with 5637, with A549 and in the series with TE-1 were 400 nM, 60 nM and 70 nM, respectively.
As for `Cn1c[n+](C)c2c1C(=O)c1cccc([N+](=O)[O-])c1C2=O`, the selectivity ratio in series [2] amounted to 438. In addition, in series [1], the IC50 at 48 h came to 17500 nM. In the series with A549, this molecule registered an IC50 of 40 nM.
In the case of `CCC(C)n1c[n+](C)c2c1C(=O)c1cc3ccccc3cc1C2=O` (stereo not drawn), the IC50 at 48 h in series [1] is above 100000 nM. For the same molecule, the IC50 in the series on 5637 is 2760 nM; with A549, 5650 nM; in the series on TE-1, 2330 nM.
In the case of `CCn1c[n+](CC)c2c1C(=O)c1ccccc1C2=O`, the selectivity ratio in series [2] worked out at 86.7. Moreover, in series [1], the 50% inhibitory concentration (IC50) at 48 h came to 5200 nM. This molecule registered an IC50 in the series with A549 of 60 nM.
In the case of `Cn1c2c([n+](C)c1-c1ccco1)C(=O)c1ccccc1C2=O`, the selectivity ratio in series [2] amounted to 10. Also, the IC50 at 48 h in series [1] worked out at 7000 nM. The molecule also registered an IC50 in the series with A549 of 680 nM.
Turning to `Cc1n(CC#N)c2c([n+]1C)C(=O)c1cc3ccccc3cc1C2=O`, the IC50 at 48 h in series [1] was 9570 nM. In addition, the IC50 in the series with 5637 stood at 720 nM; in the series with A549 it was 460 nM; in the series on TE-1 it was 670 nM.
On the same counts, the results for `Cc1n(C(C)C)c2c([n+]1C)C(=O)c1cc3ccccc3cc1C2=O` are 17900 nM, 60 nM, 90 nM and 150 nM.
In the same order, the values of `CCCCn1c2c([n+](C)c1C)C(=O)c1cc3ccccc3cc1C2=O` are 13600 nM, 330 nM, 90 nM and 90 nM.
On the same counts, the results for `CCC(C)Cn1c2c([n+](C)c1C)C(=O)c1cc3ccccc3cc1C2=O` (stereo not drawn) are 43500 nM, 1360 nM, 370 nM and 680 nM.
In the case of `C[n+]1cn(Cc2cccc(F)c2)c2c1C(=O)c1cc3ccccc3cc1C2=O`, the concentration for half-maximal inhibition (IC50) at 48 h in series [1] turned out to be 22800 nM. Besides, the IC50 with 5637 came to 550 nM; with A549 it was 910 nM; with TE-1 it was 270 nM.
With `CC(C)Cn1c[n+](C)c2c1C(=O)c1cc3ccccc3cc1C2=O`, the IC50 at 48 h in series [1] turned out to be 87400 nM. Besides, the IC50 was 750 nM with 5637, 1870 nM with A549 and 770 nM in the series with TE-1.
`CCCn1c2c([n+](C)c1C)C(=O)c1cc3ccccc3cc1C2=O`: the IC50 at 48 h in series [1] came out at 22100 nM. Besides, the values for the 50% inhibitory concentration (IC50) with 5637, with A549 and with TE-1 were 580 nM, 1220 nM and 380 nM, respectively.
In the same order, the values of `COCCn1c2c([n+](C)c1C)C(=O)c1cc3ccccc3cc1C2=O` are 11000 nM, 70 nM, 230 nM and 90 nM.
In the same order, the values of `Cc1n(Cc2cccc(F)c2)c2c([n+]1C)C(=O)c1cc3ccccc3cc1C2=O` are 45900 nM, 890 nM, 390 nM and 160 nM.
On the same counts, the results for `C[n+]1cn(Cc2ccccc2F)c2c1C(=O)c1cc3ccccc3cc1C2=O` are 17700 nM, 470 nM, 380 nM and 190 nM.
Regarding `CCn1c2c([n+](C)c1C)C(=O)c1cc3ccccc3cc1C2=O`, the IC50 at 48 h in series [1] turned out to be 23300 nM. Besides, the IC50 in the series on 5637 was found to be 460 nM; with A549, 210 nM; in the series on TE-1, 80 nM.
On the same counts, the results for `CCn1c[n+](C)c2c1C(=O)c1cc3ccccc3cc1C2=O` are 49300 nM, 100 nM, 240 nM and 80 nM.
Turning to `CC(C)CCn1c[n+](C)c2c1C(=O)c1cc3ccccc3cc1C2=O`, in series [1], the IC50 at 48 h was above 16400 nM. Besides, the IC50 came to 1780 nM with 5637, 9300 nM with A549 and 910 nM in the series with TE-1.
In the same order, the values of `Cc1n(Cc2ccccc2)c2c([n+]1C)C(=O)c1cc3ccccc3cc1C2=O` are 30600 nM, 780 nM, 880 nM and 520 nM.
In the same order, the values of `C#CCn1c2c([n+](C)c1C)C(=O)c1cc3ccccc3cc1C2=O` are 23800 nM, 1710 nM, 250 nM and 390 nM.
In the same order, the values of `COCCOCCn1c[n+](C)c2c1C(=O)c1cc3ccccc3cc1C2=O` are above 100000 nM, 180 nM, 210 nM and 70 nM.
On to `Cc1n(CC2OCCO2)c2c([n+]1C)C(=O)c1cc3ccccc3cc1C2=O`, for which the half-inhibitory concentration (IC50) at 48 h in series [1] amounted to 79900 nM. For the same molecule, the IC50 with 5637 amounted to 1650 nM; in the series with A549, 320 nM; in the series on TE-1 it was 230 nM.
